{"source": "ChEMBL document CHEMBL1139812", "about": "“Kinesin spindle protein (KSP) inhibitors. Part 8: Design and synthesis of 1,4-diaryl-4,5-dihydropyrazoles as potent inhibitors of the mitotic kinesin KSP” (Bioorg Med Chem Lett, 2007)", "key": {"[1]": {"target": "T1, Kinesin-like protein KIF11 (Homo sapiens, UniProt P52732)", "T1 sequence (P52732 whole entry)": "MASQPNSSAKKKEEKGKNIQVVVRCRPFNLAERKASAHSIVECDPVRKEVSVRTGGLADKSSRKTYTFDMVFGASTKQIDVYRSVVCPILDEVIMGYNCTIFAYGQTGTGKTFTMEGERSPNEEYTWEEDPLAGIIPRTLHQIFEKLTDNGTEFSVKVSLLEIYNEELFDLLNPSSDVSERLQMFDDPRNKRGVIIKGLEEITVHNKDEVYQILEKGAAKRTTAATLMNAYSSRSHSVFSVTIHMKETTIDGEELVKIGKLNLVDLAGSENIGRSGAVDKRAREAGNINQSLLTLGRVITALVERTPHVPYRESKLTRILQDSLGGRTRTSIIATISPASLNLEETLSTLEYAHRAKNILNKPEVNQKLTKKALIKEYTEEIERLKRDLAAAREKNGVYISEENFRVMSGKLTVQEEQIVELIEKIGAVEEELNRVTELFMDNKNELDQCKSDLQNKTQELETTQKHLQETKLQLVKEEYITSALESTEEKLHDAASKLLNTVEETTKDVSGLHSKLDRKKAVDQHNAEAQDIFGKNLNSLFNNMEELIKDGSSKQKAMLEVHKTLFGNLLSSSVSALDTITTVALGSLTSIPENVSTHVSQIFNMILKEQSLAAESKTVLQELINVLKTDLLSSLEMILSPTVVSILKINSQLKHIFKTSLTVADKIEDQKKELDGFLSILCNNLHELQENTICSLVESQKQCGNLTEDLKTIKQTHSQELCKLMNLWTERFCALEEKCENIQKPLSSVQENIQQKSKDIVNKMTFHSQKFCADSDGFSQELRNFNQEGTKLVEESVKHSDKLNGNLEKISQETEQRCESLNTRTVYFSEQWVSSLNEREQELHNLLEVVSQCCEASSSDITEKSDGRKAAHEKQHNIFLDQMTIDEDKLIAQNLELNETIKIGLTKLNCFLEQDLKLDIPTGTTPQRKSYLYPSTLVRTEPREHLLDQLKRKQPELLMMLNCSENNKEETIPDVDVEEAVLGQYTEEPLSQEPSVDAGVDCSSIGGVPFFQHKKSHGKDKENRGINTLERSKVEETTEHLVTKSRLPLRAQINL", "assay": "Inhibition of kinesin spindle protein by ATPase assay"}, "[2]": {"target": "T1, Kinesin-like protein KIF11", "assay": "Inhibition of KSP-induced nucleolin phosphorylation in cell-based mitotic arrest assay", "format": "functional"}, "Homo sapiens": {"species": "Homo sapiens", "assay": "Protein binding in human plasma", "settings": "read-out: PB (converted)"}, "[3]": {"assay": "Protein binding in mouse plasma", "format": "ADME, cell-free", "settings": "read-out: PB (converted)"}, "KB 3-1": {"test_system": "KB 3-1", "assay": "Ratio of IC50 for KB-V-1 cells to IC50 for KB-3-1 cells", "format": "functional, Homo sapiens"}, "A2780": {"test_system": "A2780", "assay": "Mitotic arrest in human A2780 cells xenografted nude mouse assessed as induction of phospho-histone H3 at 3.5 mg/kg", "format": "functional"}, "[4]": {"assay": "Solubility at pH 4", "format": "physicochemical", "settings": "buffer"}, "[5]": {"target": "Voltage-gated inwardly rectifying potassium channel KCNH2 (Homo sapiens, UniProt Q12809)", "sequence (Q12809 whole entry)": "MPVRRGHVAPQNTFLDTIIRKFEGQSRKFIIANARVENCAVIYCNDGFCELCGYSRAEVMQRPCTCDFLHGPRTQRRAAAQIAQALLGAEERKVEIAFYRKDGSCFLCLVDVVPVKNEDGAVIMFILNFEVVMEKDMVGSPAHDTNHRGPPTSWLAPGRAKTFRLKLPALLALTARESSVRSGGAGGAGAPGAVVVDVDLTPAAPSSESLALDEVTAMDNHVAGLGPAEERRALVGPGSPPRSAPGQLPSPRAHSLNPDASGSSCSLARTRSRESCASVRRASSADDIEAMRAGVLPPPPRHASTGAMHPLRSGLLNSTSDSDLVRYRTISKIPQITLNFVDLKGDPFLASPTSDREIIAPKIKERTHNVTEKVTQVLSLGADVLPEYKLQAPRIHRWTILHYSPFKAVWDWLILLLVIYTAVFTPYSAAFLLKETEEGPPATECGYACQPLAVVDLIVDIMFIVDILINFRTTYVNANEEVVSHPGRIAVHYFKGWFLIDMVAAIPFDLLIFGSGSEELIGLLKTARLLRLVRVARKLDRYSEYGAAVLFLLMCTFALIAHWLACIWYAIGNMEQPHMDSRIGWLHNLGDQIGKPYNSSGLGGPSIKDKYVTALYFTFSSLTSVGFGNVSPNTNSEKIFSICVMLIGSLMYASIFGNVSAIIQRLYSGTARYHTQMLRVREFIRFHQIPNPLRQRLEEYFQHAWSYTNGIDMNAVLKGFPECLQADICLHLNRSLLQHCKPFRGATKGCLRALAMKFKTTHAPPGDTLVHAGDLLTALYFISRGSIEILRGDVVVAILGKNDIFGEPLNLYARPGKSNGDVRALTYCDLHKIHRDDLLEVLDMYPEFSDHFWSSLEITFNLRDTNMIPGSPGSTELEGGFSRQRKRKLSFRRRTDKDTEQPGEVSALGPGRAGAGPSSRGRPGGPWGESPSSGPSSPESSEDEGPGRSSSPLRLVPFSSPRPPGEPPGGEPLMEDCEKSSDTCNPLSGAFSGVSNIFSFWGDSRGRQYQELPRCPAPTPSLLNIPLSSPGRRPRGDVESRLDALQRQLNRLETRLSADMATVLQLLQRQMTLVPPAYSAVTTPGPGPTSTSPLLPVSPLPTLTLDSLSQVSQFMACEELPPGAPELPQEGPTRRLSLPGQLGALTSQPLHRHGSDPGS", "assay": "Inhibition of hERG expressed in HEK cells", "format": "toxicity, cell-based, HEK293"}}, "data": [{"smiles": "CC(=O)C1=NN(c2cc(Br)ccc2F)CC1(CCCN1CCN(C(C)=O)CC1)c1ccccc1", "note": "(racemic)", "values": [{"measurement": "IC50", "setting": "[1]", "value": 4.7, "unit": "nM"}, {"measurement": "EC50", "setting": "[2]", "value": 38, "unit": "nM"}]}, {"smiles": "CC(=O)C1=NN(c2cc(F)ccc2F)CC1(CCCN1CCS(=O)(=O)CC1)c1ccccc1", "note": "(racemic)", "values": [{"measurement": "IC50", "setting": "[1]", "value": 16.5, "unit": "nM"}, {"measurement": "EC50", "setting": "[2]", "value": 138, "unit": "nM"}]}, {"smiles": "CC(=O)C1=NN(c2cc(C(F)(F)F)ccc2F)CC1(CCCN1CCN(C(C)=O)CC1)c1ccccc1", "note": "(racemic)", "values": [{"measurement": "IC50", "setting": "[1]", "value": 10.1, "unit": "nM"}, {"measurement": "EC50", "setting": "[2]", "value": 208, "unit": "nM"}]}, {"smiles": "CC(=O)C1=NN(c2cc(F)ccc2F)CC1(CCCN1CCCC1)c1ccccc1", "note": "(racemic)", "values": [{"measurement": "IC50", "setting": "[1]", "value": 3.8, "unit": "nM"}, {"measurement": "EC50", "setting": "[2]", "value": 15, "unit": "nM"}]}, {"smiles": "CC(=O)C1=NN(c2cc(Cl)ccc2F)CC1(CCCN1CCN(C(C)=O)CC1)c1ccccc1", "note": "(racemic)", "values": [{"measurement": "IC50", "setting": "[1]", "value": 3.9, "unit": "nM"}, {"measurement": "EC50", "setting": "[2]", "value": 46, "unit": "nM"}]}, {"smiles": "CC(=O)C1=NN(c2cc(F)ccc2F)CC1(CCCN1CC(F)C1)c1ccccc1", "note": "(racemic)", "values": [{"measurement": "IC50", "setting": "[1]", "value": 5.2, "unit": "nM"}, {"measurement": "EC50", "setting": "[2]", "value": 40, "unit": "nM"}]}, {"smiles": "CC(=O)C1=NN(c2cc(F)ccc2F)CC1(CCCN1CCN(C(C)=O)CC1)c1ccccc1", "note": "(racemic)", "values": [{"measurement": "IC50", "setting": "[1]", "value": 3.8, "unit": "nM"}, {"measurement": "EC50", "setting": "[2]", "value": 78, "unit": "nM"}]}, {"smiles": "CC(=O)C1=NN(c2cc(F)ccc2F)CC1(CCCN(C)Cc1cc(C)no1)c1ccccc1", "note": "(racemic)", "values": [{"measurement": "IC50", "setting": "[1]", "value": 4, "unit": "nM"}, {"measurement": "EC50", "setting": "[2]", "value": 567, "unit": "nM"}]}, {"smiles": "CC(=O)C1=NN(c2cc(F)ccc2F)CC1(CCCN1CCOCC1)c1ccccc1", "note": "(racemic)", "values": [{"measurement": "IC50", "setting": "[1]", "value": 4.2, "unit": "nM"}, {"measurement": "EC50", "setting": "[2]", "value": 53, "unit": "nM"}]}, {"smiles": "CC(=O)C1=NN(c2cc(F)ccc2F)CC1(CCCN1CC2CC1CO2)c1ccccc1", "note": "(racemic)", "values": [{"measurement": "IC50", "setting": "[1]", "value": 1.2, "unit": "nM"}, {"measurement": "EC50", "setting": "[2]", "value": 11, "unit": "nM"}]}, {"smiles": "CC(=O)C1=NN(c2cc(C)ccc2F)C[C@@]1(CCCN(C)C)c1ccccc1", "values": [{"measurement": "fraction unbound", "setting": "Homo sapiens", "value": 0.04}, {"measurement": "IC50", "setting": "[1]", "value": 0.2, "unit": "nM"}, {"measurement": "EC50", "setting": "[2]", "value": 3.2, "unit": "nM"}, {"measurement": "fraction unbound", "setting": "[3]", "value": 0.07}, {"measurement": "Ratio IC50", "setting": "KB 3-1", "value": 1.6}, {"measurement": "EC99", "setting": "A2780", "value": 67, "unit": "nM"}, {"measurement": "solubility", "setting": "[4]", "value": "> 4000", "unit": "µg/mL"}, {"measurement": "IC50", "setting": "[5]", "value": 3040, "unit": "nM"}]}, {"smiles": "CC(=O)C1=NN(c2ccccc2F)CC1(CCCN1CCN(C(C)=O)CC1)c1ccccc1", "note": "(racemic)", "values": [{"measurement": "IC50", "setting": "[1]", "value": 21.8, "unit": "nM"}, {"measurement": "EC50", "setting": "[2]", "value": 368, "unit": "nM"}]}, {"smiles": "CC(=O)C1=NN(c2cc(C)ccc2F)CC1(CCCN1CCN(C(C)=O)CC1)c1ccccc1", "note": "(racemic)", "values": [{"measurement": "IC50", "setting": "[1]", "value": 2, "unit": "nM"}, {"measurement": "EC50", "setting": "[2]", "value": 27, "unit": "nM"}]}, {"smiles": "CC(=O)C1=NN2c3cc(F)ccc3OC[C@H]2[C@@]1(CCCN1CCN(C(C)=O)CC1)c1ccccc1", "values": [{"measurement": "EC50", "setting": "[2]", "value": 5, "unit": "nM"}, {"measurement": "EC99", "setting": "A2780", "value": 100, "unit": "nM"}, {"measurement": "solubility", "setting": "[4]", "value": "> 4000", "unit": "µg/mL"}]}, {"smiles": "CC(=O)C1=NN(c2cc(F)ccc2F)CC1(CCCN(C)C)c1ccccc1", "note": "(racemic)", "values": [{"measurement": "IC50", "setting": "[1]", "value": 2.1, "unit": "nM"}, {"measurement": "EC50", "setting": "[2]", "value": 9.4, "unit": "nM"}]}]}
